# PMC7316778 (Nature Communications, 2020)
# Where “and” joins values, the source holds several entries; their conditions need not be identical. Equal entries are not always repeated. Where two headings read alike, the source gives them in different places.
# How the values were obtained:
# [1] = biological target: RIPK3 (Homo sapiens, UniProt Q9Y572); assay: SelectScreen kinase assay
# Procedure: (§1) Selectivity profiling assays were performed by the Invitrogen SelectScreen™ Services. […] The concentration of ATP was selected to be equal to the KM, unless indicated otherwise.
# [2] = test system: FES^S700C HL-60 cells; assay: CD11b surface expression, PMA-induced macrophage differentiation; type: cell-based, human; details: for CD11b-positive cells (%): Figure 6d, S700C
# [3] = biological target: TGFBR2 (Homo sapiens, UniProt P37173); assay: SelectScreen kinase assay
# Chain of TGFBR2 (P37173 23-567): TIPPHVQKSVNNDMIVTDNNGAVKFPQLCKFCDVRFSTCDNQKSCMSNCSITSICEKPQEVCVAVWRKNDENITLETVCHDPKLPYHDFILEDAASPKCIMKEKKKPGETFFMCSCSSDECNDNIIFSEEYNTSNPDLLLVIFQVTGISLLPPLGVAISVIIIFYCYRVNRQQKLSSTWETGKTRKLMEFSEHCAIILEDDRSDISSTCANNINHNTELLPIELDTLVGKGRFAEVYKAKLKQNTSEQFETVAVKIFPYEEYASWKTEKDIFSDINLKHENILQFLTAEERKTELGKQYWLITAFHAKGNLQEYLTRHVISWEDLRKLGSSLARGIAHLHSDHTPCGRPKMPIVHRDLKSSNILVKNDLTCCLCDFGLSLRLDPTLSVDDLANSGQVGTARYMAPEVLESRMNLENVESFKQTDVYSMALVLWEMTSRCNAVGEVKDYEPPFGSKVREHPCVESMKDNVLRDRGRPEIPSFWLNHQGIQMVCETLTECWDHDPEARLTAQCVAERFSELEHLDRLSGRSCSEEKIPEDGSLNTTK
# Procedure: as §1
# [4] = biological target: MATK (HYL) (Homo sapiens, UniProt P42679); assay: SelectScreen kinase assay
# Procedure: as §1
# [5] = biological target: VRK2 (Homo sapiens, UniProt Q86Y07); assay: SelectScreen kinase assay
# Chain of VRK2 (Q86Y07 whole entry): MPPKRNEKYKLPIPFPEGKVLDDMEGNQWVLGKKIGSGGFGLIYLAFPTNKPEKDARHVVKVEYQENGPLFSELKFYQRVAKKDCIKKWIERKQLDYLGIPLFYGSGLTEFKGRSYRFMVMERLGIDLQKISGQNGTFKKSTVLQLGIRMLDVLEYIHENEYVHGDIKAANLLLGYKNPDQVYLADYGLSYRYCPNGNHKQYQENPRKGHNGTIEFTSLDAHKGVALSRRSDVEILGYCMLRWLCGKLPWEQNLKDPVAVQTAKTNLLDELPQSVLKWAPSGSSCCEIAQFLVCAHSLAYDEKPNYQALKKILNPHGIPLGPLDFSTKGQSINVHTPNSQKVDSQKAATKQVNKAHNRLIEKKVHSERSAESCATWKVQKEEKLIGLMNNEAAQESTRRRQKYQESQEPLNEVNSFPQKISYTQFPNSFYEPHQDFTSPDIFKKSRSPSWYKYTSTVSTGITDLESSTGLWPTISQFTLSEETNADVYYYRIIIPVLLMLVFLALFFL
# Procedure: as §1
# [6] = biological target: CDK17/cyclin Y (Homo sapiens, UniProt Q00537); assay: SelectScreen kinase assay
# Procedure: as §1
# [7] = biological target: T1, MUSK (Homo sapiens, UniProt O15146); assay: SelectScreen kinase assay
# T1 sequence (O15146 24-869): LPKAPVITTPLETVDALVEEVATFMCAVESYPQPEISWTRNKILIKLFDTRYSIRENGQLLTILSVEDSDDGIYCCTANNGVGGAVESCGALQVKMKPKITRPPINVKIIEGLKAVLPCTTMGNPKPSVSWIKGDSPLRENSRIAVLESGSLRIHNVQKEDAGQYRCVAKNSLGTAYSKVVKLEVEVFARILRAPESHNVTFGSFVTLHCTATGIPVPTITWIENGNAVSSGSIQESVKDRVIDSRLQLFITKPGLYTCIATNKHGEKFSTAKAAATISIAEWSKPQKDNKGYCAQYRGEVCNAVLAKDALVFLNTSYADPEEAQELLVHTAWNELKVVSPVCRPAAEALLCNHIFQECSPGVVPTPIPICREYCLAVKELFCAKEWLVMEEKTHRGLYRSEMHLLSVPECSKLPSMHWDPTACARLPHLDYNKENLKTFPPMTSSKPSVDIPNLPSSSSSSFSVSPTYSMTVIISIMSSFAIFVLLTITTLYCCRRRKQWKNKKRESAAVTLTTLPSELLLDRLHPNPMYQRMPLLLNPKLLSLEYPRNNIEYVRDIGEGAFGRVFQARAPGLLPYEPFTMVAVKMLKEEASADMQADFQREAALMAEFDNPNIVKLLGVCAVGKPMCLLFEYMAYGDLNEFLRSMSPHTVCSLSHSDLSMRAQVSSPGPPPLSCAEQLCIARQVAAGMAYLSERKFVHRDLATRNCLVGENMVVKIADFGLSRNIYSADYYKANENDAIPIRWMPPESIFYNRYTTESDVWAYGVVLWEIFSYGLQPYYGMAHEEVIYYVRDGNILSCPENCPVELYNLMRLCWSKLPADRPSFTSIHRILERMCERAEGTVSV
# Procedure: as §1
# [8] = biological target: T2, MAPK15 (ERK7) (Homo sapiens, UniProt Q8TD08); assay: SelectScreen kinase assay
# T2 sequence (Q8TD08 1-544): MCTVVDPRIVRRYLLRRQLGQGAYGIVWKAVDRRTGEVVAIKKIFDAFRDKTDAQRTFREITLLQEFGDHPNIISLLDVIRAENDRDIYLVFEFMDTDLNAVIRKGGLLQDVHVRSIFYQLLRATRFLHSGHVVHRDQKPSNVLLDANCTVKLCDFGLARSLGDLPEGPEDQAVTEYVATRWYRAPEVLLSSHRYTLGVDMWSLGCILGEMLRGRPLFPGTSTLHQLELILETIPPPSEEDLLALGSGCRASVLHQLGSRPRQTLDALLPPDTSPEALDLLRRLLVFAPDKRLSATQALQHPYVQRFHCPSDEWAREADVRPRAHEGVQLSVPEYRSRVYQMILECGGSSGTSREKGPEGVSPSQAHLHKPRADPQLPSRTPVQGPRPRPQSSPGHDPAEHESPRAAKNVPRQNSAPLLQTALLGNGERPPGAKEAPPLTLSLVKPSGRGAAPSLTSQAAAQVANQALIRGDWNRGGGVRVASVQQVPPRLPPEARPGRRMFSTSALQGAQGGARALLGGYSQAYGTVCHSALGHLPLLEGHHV
# Procedure: as §1
# [9] = biological target: CSNK1A1L (Homo sapiens, UniProt Q8N752); assay: SelectScreen kinase assay
# Chain of CSNK1A1L (Q8N752 whole entry): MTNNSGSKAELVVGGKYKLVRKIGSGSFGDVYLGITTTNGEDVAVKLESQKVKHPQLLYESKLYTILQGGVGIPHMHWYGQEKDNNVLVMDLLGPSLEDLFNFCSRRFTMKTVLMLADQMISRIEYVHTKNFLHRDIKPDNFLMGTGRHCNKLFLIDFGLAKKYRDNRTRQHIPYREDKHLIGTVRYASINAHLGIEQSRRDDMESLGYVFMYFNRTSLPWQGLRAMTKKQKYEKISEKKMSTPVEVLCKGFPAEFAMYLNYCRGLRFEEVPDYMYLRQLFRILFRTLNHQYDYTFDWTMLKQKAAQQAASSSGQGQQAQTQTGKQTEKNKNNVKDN
# Procedure: as §1
# [10] = biological target: ROS1 (Homo sapiens, UniProt P08922); assay: SelectScreen kinase assay
# Chain of ROS1 (P08922 28-2347, species assumed): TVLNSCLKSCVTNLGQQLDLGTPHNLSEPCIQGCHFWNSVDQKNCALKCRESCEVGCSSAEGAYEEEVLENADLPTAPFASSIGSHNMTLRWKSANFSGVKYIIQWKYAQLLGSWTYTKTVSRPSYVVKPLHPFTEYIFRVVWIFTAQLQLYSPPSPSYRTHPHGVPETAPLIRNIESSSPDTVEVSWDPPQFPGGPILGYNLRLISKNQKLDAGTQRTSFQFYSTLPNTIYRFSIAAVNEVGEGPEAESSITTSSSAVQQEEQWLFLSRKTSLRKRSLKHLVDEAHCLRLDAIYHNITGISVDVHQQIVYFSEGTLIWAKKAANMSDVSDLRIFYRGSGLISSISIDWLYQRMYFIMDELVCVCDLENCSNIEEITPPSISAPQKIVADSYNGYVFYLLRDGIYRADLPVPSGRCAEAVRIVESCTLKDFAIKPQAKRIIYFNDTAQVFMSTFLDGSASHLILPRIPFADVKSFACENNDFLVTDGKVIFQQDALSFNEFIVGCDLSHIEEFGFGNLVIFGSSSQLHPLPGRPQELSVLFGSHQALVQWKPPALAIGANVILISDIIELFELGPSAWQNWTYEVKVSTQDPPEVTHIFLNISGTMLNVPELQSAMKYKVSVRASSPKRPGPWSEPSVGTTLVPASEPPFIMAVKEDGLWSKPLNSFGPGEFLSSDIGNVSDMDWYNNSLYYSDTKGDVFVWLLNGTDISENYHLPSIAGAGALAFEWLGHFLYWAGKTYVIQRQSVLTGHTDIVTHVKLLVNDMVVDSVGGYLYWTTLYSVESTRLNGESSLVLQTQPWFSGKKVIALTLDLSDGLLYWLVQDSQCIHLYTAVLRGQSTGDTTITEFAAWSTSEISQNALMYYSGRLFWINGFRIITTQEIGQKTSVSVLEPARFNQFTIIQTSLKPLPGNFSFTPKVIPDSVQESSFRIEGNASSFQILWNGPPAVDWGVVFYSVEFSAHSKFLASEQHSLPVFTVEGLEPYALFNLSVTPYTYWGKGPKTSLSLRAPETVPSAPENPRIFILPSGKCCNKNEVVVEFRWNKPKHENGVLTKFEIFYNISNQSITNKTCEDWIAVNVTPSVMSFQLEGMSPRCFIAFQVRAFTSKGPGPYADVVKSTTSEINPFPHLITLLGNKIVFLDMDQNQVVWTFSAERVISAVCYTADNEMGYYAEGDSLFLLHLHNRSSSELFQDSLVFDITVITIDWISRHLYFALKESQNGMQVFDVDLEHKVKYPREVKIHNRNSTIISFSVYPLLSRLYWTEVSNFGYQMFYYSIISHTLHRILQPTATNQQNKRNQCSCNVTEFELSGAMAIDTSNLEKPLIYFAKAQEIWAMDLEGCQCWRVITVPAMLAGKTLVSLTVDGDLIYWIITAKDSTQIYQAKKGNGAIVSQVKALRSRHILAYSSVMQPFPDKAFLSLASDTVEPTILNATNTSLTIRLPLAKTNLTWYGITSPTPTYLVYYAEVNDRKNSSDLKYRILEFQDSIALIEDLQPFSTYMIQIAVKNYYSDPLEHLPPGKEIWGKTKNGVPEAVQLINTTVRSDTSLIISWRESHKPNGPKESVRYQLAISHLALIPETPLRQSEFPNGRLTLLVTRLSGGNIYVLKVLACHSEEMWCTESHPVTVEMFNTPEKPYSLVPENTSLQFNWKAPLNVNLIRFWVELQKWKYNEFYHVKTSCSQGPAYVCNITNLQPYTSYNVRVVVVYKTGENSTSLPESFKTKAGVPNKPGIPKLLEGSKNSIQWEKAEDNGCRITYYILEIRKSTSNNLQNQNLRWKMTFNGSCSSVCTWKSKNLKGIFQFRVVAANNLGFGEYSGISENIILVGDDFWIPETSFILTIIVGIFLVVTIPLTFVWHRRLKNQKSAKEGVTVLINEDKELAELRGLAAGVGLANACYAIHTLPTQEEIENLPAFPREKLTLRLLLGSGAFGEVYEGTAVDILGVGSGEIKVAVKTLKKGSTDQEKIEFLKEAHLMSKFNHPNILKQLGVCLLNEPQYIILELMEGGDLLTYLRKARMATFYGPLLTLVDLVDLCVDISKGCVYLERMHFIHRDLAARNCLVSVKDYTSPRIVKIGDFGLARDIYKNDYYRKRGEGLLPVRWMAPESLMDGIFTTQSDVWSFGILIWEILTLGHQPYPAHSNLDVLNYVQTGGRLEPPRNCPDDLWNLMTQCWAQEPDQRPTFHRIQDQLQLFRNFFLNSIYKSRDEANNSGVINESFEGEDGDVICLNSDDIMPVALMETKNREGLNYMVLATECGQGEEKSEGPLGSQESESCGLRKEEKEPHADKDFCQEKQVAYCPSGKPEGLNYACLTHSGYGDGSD
# Procedure: as §1
# [11] = biological target: PDGFRB (PDGFR beta) (Homo sapiens, UniProt P09619); assay: SelectScreen kinase assay
# Chain of PDGFRB (PDGFR beta) (P09619 33-1106): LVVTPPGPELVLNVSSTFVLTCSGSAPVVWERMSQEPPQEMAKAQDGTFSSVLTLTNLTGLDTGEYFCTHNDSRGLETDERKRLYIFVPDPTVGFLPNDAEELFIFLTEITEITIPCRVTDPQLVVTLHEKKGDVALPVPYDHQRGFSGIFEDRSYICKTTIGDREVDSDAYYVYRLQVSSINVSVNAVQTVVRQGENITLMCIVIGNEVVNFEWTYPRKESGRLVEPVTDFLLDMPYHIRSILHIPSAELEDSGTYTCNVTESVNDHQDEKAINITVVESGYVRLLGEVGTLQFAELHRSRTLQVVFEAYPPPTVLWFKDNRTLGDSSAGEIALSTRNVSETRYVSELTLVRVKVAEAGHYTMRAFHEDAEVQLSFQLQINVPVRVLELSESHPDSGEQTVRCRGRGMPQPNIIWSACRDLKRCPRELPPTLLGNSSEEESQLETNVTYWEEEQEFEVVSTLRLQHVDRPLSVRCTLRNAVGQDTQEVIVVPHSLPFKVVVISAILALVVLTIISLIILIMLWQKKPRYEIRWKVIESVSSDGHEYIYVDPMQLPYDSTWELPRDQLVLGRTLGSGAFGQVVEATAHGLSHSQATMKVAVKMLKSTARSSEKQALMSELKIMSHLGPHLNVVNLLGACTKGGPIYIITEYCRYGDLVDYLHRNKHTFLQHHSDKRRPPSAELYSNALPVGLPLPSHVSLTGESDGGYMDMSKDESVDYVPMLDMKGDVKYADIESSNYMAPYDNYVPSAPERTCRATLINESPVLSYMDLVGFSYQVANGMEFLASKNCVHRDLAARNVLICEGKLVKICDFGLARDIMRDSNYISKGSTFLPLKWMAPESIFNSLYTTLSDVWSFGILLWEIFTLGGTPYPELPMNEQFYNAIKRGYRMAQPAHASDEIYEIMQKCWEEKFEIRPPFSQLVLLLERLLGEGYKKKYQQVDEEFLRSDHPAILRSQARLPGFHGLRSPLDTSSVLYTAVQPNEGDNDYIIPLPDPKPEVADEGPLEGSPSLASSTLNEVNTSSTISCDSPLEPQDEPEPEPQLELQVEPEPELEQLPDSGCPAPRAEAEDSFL
# Procedure: as §1
# [12] = biological target: RPS6KA2 (RSK3) (Homo sapiens, UniProt Q15349); assay: SelectScreen kinase assay; details: 1 h, 1 μM WEL028, 1 h preincubation
# Procedure: as §1
# [13] = biological target: FES^S700C (Homo sapiens, UniProt P07332, S700C); assay: Time-dependent probe displacement by WEL033 in lysate
# [14] = biological target: RET (Homo sapiens, UniProt P07949); assay: SelectScreen kinase assay
# Procedure: as §1
# [15] = biological target: MYLK (MLCK) (Homo sapiens, UniProt Q15746); assay: SelectScreen kinase assay
# Procedure: as §1
# [16] = biological target: GRK7 (Homo sapiens, UniProt Q8WTQ7); assay: SelectScreen kinase assay; details: 1 h, 1 μM WEL028, 1 h preincubation
# Procedure: as §1
# [17] = 1 h, 1 μM WEL028, 1 h preincubation
# [18] = read-out: Inhibition at 1 µM (%), 1 µM, LanthaScreen Binding
# [19] = 1 µM, LanthaScreen Binding, listed as WEL028, 1 µM
# [20] = read-out: Inhibition at 1 µM (%)
# [21] = read-out: Inhibition at 1 µM (%), 1 µM, ZLYTE, ATP Km app
compound,measurement,setting,value
C#CCOc1ccc(Nc2ncc(Cl)c(Nc3ccccc3NC(=O)C=C)n2)c(OC)c1 [Compound 6],inhibition at 1 µM,[1]; [17],1%
same,inhibition at 1 µM,[1]; [18],2%
same,Increase in CD11b expression,[2]; 100 nM WEL028,3%
same,Percentage of CD11b-positive cells,[2]; 100 nM WEL028,minimally affected
same,CD11b expression,[2]; 1 µM WEL028,completely failed to express CD11b
same,CD11b-positive cells (%),[2]; WEL028 100 nM,93.479% and 95.735% and 92.126%
same,CD11b-positive cells (%),[2]; WEL028 1 µM,19.047% and 18.635% and 20.613%
same,Inhibition at 1 µM (%),[3]; [19],11%
same,inhibition at 1 µM,[3]; [17],14%
same,inhibition at 1 µM,[3]; [18],17%
same,inhibition at 1 µM,[4]; 1 h,8%
same,inhibition at 1 µM,[4]; [20],8%
same,Inhibition at 1 µM (%),[5]; [19],19%
same,inhibition at 1 µM,[5]; [17],16%
same,inhibition at 1 µM,[5]; [18],14%
same,inhibition at 1 µM,[6]; [17],4%
same,inhibition at 1 µM,"[6]; read-out: Inhibition at 1 µM (%), CDK17/cyclin Y, 1 µM, ZLYTE, ATP Km app",5%
same,inhibition at 1 µM,[7]; [17],26%
same,Inhibition at 1 µM (%),"[7]; MUSK, 1 µM, ZLYTE, ATP Km app, listed as WEL028, 1 µM",33%
same,inhibition at 1 µM,"[7]; read-out: Inhibition at 1 µM (%), MUSK, 1 µM, ZLYTE, ATP Km app",19%
same,inhibition at 1 µM,[8]; [17],5%
same,Inhibition at 1 µM (%),"[8]; MAPK15 (ERK7), 1 µM, LanthaScreen Binding, listed as WEL028, 1 µM",4%
same,inhibition at 1 µM,"[8]; read-out: Inhibition at 1 µM (%), MAPK15 (ERK7), 1 µM, LanthaScreen Binding",7%
same,inhibition at 1 µM,[9]; 1 h,5%
same,inhibition at 1 µM,[9]; [20],5%
same,IC50,[10],> 10000 nM
same,Inhibition at 1 µM (%),"[10]; 1 µM, ZLYTE, ATP Km app, listed as WEL028, 1 µM",52%
same,inhibition at 1 µM,[10]; [17],56%
same,inhibition at 10 µM,"[10]; 1 h, log[inhibitor] (M) -5.00, ZLYTE, ATP Km app",76%
same,inhibition at 3.31 µM,"[10]; 1 h, log[inhibitor] (M) -5.48, ZLYTE, ATP Km app",80%
same,inhibition at 1.12 µM,"[10]; 1 h, log[inhibitor] (M) -5.95, ZLYTE, ATP Km app",53%
same,inhibition at 0.372 µM,"[10]; 1 h, log[inhibitor] (M) -6.43, ZLYTE, ATP Km app",42%
same,inhibition at 0.123 µM,"[10]; 1 h, log[inhibitor] (M) -6.91, ZLYTE, ATP Km app",23%
same,inhibition at 0.00151 µM,"[10]; 1 h, log[inhibitor] (M) -8.82, ZLYTE, ATP Km app",6%
same,Apparent fold selectivity,[10]; IC50 on that kinase divided by IC50 on FES^S700C,> 238 fold
same,inhibition at 1 µM,[10]; [21],60%
same,inhibition at 1 µM,[11]; [17],22%
same,Inhibition at 1 µM (%),"[11]; PDGFRB (PDGFR beta), 1 µM, ZLYTE, ATP Km app, listed as WEL028, 1 µM",23%
same,inhibition at 1 µM,"[11]; read-out: Inhibition at 1 µM (%), PDGFRB (PDGFR beta), 1 µM, ZLYTE, ATP Km app",21%
same,inhibition at 1 µM,[12],19%
same,IC80,[13]; read-out: IC80-concentration (20% remaining activity),27 nM
same,Mode of action,[13]; recovery of WEL033 labeling after inhibitor at IC80,irreversible
same,inhibition at 1 µM,[14]; [17],7%
same,inhibition at 1 µM,[14]; [21],6%
same,inhibition at 1 µM,[15]; 1 h,15%
same,inhibition at 1 µM,[15]; [20],15%
same,inhibition at 1 µM,[16],11%
